According to patent publication US20050136126A1, “Agent for reduction of scar formation by using wound alkalinization” (CambridgeMED, Inc., priority 2003, published 2005):
Where two headings read alike, the source gives them in different places.

Key:
[1] = From the text: Regarding concentrations and amounts of the various reagents, please refer to Tables 1 and 2 below: […]
[2] = system: incised wound on the dorsum of adult white rats; settings: for deposited collagen (amount, appearance) / collagen fibers (density, structure) vs normal dermis: Trichrome dyeing
Procedure: On the dorsum of adult white rats, skin near the limbs which are on the same distance from the median line was incised in about 10 mm long. In a sham control group, 0.1 cc distilled water was injected to the dermis of the incised wound and simply sutured.
On 14th and 56th days from the experiments, tissues of ten adult white rats were taken, fixed in 10% neutral buffer formalin for 24 hours, embedded in paraffin throughout the normal tissue treating process.
With a tissue sample, which was cut perpendicularly to the middle of the wound, the width of the scar by use of image analysis program (Image-Pro version 3.0, Microsoft) under 40 magnification was measured, and the differences between the groups were compared. The result of the measurement was confirmed by Student t-test.
On the dorsum of adult white rats, skin near the limbs which are on the same distance from the median line was incised in about 10 mm long. After incision, the control group was simply sutured.

TGF-β = experiment: Experiment of TGF-β inactivation: histology and width of scar after TGF-β injection into incised wound; assay type: in vivo, bovine; settings: 8 weeks; Trichrome dyeing
[3] = 2 weeks, hematoxylin-eosin dyeing, ×40

Compound: [K+].[OH-] [KOH, potassium hydroxide]
- pH value ([1]; 0.05 mEq): 8.56
- pH value ([1]; 0.1 mEq): 9.40
- pH value ([1]; 0.5 mEq): 9.74
- pH value ([1]; 1.0 mEq): 10.51
- deposited collagen (amount, appearance) ([2]; 2 weeks): meager compared to that of the control group
- width of the scar vs control group (histological observation) [2, 3]: thinner than that of the control group
- collagen fibers (density, structure) vs normal dermis ([2]; 8 weeks): not different from that of the normal dermis nearby

Compound: [Na+].[OH-] [NaOH, sodium hydroxide]
- pH value ([1]; 0.05 mEq): 8.55
- pH value ([1]; 0.1 mEq): 9.38
- pH value ([1]; 0.5 mEq): 9.87
- pH value ([1]; 1.0 mEq): 10.50
- deposited collagen (amount, appearance) ([2]; 2 weeks): meager compared to that of the control group
- width of the scar vs control group (histological observation) [2, 3]: thinner than that of the control group
- collagen fibers (density, structure) vs normal dermis ([2]; 8 weeks): not different from that of the normal dermis nearby

Compound: O=C([O-])O.[Na+] [sodium bicarbonate]
- pH value ([1]; 0.05 mEq): 8.83
- pH value ([1]; 0.1 mEq): 9.22
- pH value ([1]; 0.5 mEq): 9.82
- pH value ([1]; 1.0 mEq): 10.36
- degree of deposition of inflammatory cells vs control group [2, 3]: not much difference
- width of the scar vs control group (histological observation) [2, 3]: thinner than that of the control group
- scar appearance ([2]; 8 weeks, hematoxylin-eosin dyeing, ×40): thin and unnoticeable scar
- fibroblast cells ([2]; 8 weeks, hematoxylin-eosin dyeing, ×400): Not many of the fibroblast cells were found

Compound: TGF-β
- collagen fibers (density, structure) vs normal dermis (TGF-β): clearly showed the scar
